In publication PMC9394284, “Discovery of Novel Dual Adenosine A2A and A1 Receptor Antagonists with 1H-Pyrazolo[3,4-d]pyrimidin-6-amine Core Scaffold as Anti-Parkinson’s Disease Agents” (Pharmaceuticals, 2022):
Like-named read-outs stand apart in the source and are kept apart here.

Tests used:
[1] = test system: beagle dogs; experiment: maximum tolerated dose, single oral administration, dog; details: in vivo, po
Protocol: Rat and dog MTD studies were performed at Frontage Laboratories Inc following testing facility’s SOPs. All procedures described were reviewed and approved by the Institutional Animal Care and Use Committee (IACUC) at Frontage Laboratories Inc.
For dog MTD study, male and female beagle dogs (Canis familiaris) of 1.3 to 1.4 years of age were from Frontage Laboratories’ test facility stock colony, originally procured from Marshall BioResources (North Rose, NY, USA). The health status of the animals was reviewed by a staff veterinarian. Data collected on animals prior to release to study were maintained as testing facility records. Same dogs were used for each dose event. Animals received a single dose of 11o in 0.5% methyl cellulose via oral gavage starting from 50 mg/kg dose level in 5 mL/kg dose volume. Subsequent doses occurred 3 or 4 days following the previous dose and were increased based on findings from the previous dosing(s). The procedure continued until four dosing events occurred. Animals were fasted overnight prior to each dose administration with food provided approximately 4 h post-dose. Animals were observed once in the morning and once in the afternoon throughout the study for clinical observations. Body weights were measured on the day prior to dose administration. Data were collected and reported electronically using Provantis^TM (Instem LSS Ltd., Staffordshire, UK).

[2] = pharmacokinetics and brain/plasma ratio in mouse brain; type: in vivo, Crl:CD-1 mice; details: male; for AUC(0-t) / Cmax / Tmax / half-life: mouse brain
Protocol: Male Crl:CD-1 mice of 9~10 weeks of age were purchased from Charles River Laboratories, USA and maintained at standard food and water ad libitum in temperature-controlled room with 12 h on-off light cycle before the experiment. All procedures described were reviewed and approved by the Institutional Animal Care and Use Committee (IACUC) at Frontage Laboratories Inc. For PO dosing, mice were given 11o dissolved in DMSO: PEG400 (1:3, v:v) via gavage. For IV dosing, 11o solubilized in DMSO: PEG400: saline (1:3:6, v:v) were injected into tail veins at dose volume of 1 mL/kg. For IN dosing, 11o solubilized in DMSO and 25 μL of the appropriate dosing solution was placed near the nares to allow animal to inhale the dose. Three mice were sampled from each group for each blood and brain collection time point. Time points are 0.5, 1, 2, 4, 8, 24 h for PO and IN dosing and 0.083, 1, 2, 4, 8 and 24 h for IV dosing. Mice were euthanized by terminal retro-orbital blood collection under isoflurane anesthesia, followed by opening of the thoracic cavity per facility SOPs. A target volume of 1 mL was collected into tubes containing K3EDTA anti-coagulant, inverted several times and held on wet ice until centrifuged under refrigeration (set at 5 °C for 10 min at 2000× g). Resulting plasma were stored in a freezer set to maintain −70 °C until analyzed for 11o concentration. Brain was removed from each animal and weighed following termination, snap frozen and stored until later use. Plasma and brain PK analysis was conducted using WinNolin Version 6.2.1 (Pharsight, Mountain View, CA, USA), operating as a validated software system. Noncompartmental analysis was conducted using the extravascular administration model for oral dosing and the IV bolus model for IV dosing. The peak plasma and brain concentration, time to achieve peak plasma concentration, half-life, and area under the plasma concentration-time curve (Cmax, Tmax, T1/2 and AUC) were calculated from mean plasma concentrations for each sampling time/dose group for 11o. Nominal blood collection times were used for calculation of PK parameters. Dose proportionality was assessed, and bioavailability was calculated for PO dosing.

[3] = biological target: T1, A1 adenosine receptor (Homo sapiens, UniProt P30542); experiment: cyclic AMP HTRF functional assay, CHO-K1 (A1); type: cell-based; details: CHO-K1 cells
T1 sequence (P30542 1-326): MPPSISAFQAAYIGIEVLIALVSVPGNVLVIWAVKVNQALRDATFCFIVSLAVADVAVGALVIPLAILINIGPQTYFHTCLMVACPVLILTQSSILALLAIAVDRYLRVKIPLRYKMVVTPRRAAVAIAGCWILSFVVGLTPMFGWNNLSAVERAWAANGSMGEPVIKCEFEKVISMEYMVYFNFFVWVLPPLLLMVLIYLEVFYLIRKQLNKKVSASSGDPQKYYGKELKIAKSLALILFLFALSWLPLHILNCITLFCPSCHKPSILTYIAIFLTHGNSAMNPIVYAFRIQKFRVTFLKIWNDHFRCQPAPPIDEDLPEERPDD
Protocol: Next, the functional activity of 11o against A1 and A2A adenosine receptors was evaluated using c-AMP assay in CHO-K1 (A1) and HEK-293 (A2A) cells.
For functional studies, A1 and A2A receptor cyclic AMP HTRF (homogeneous time resolved fluorescence) assay was performed at EuroscreenFast (Charleroi, Belgium) using CHO-K1 (A1) and HEK293 (A2A) stable cell line with CPA (A1) and NECA (A2A) as reference agonist and DPCPX (A1) and ZM241385 (A2A) as reference antagonist compound.

[4] = Crl:CD-1, inhaled or intranasal, 1 mg/kg IN
[5] = Crl:CD-1, inhaled or intranasal, 3 mg/kg IN
[6] = Crl:CD-1, inhaled or intranasal, 10 mg/kg IN

## Cc1cc(Cn2ncc3c(-c4cccc(C#N)c4F)nc(N)nc32)ccc1N [11o, 3-(6-Amino-1-(4-amino-3-methylbenzyl)-1H-pyrazolo[3,4-d]pyrimidin-4-yl)-2-fluorobenzonitrile]
[1]
  body weight change, female dogs: −6.5%
  body weight change, male dogs: −5.7%
[2]; Crl:CD-1, brain/plasma, other: intranasal (IN), placed near the nares, mouse, IN 1, 3 and 10 mg/kg, read-out: B/P ratio, IN dosing groups
  Kp: 0.0698 to 0.183
[2]; Crl:CD-1, brain/plasma, mouse, PO 1, 3 and 10 mg/kg, read-out: B/P ratio, PO dosing groups
  Kp: 0.0242 to 0.167
[2]; [4]
  AUC(0-t): 5.23 ng·h/mL
  Cmax: 9.63 ng/mL
  Tmax: 30 min
[2]; [5]
  AUC(0-t): 14.2 ng·h/mL
  Cmax: 15.9 ng/mL
  Tmax: 30 min
[2]; [6]
  AUC(0-t): 81.3 ng·h/mL
  Cmax: 38.2 ng/mL
  Tmax: 30 min
  half-life: 224 min
[2]; Crl:CD-1, mouse, other: IN (intranasal, placed near the nares to inhale), 10 mg/kg IN, Brain AUClast/Plasma AUClast, read-out: B/P Ratio
  Kp: 0.183
[2]; Crl:CD-1, mouse, other: IN dosing, solution placed near the nares to inhale, 1 mg/kg IN, Brain AUClast/Plasma AUClast, read-out: B/P Ratio
  Kp: 0.0698
[2]; Crl:CD-1, mouse, other: IN dosing, solution placed near the nares to inhale, 3 mg/kg IN, Brain AUClast/Plasma AUClast, read-out: B/P Ratio
  Kp: 0.0776
[2]; Crl:CD-1, mouse, 1 mg/kg IV, Brain AUClast/Plasma AUClast, read-out: B/P Ratio
  Kp: 0.741
[2]; Crl:CD-1, mouse, 1 mg/kg PO, Brain AUClast/Plasma AUClast, read-out: B/P Ratio
  Kp: 0.0242
[2]; Crl:CD-1, mouse, 3 mg/kg PO, Brain AUClast/Plasma AUClast, read-out: B/P Ratio
  Kp: 0.0977
[2]; Crl:CD-1, mouse, 10 mg/kg PO, Brain AUClast/Plasma AUClast, read-out: B/P Ratio
  Kp: 0.167
[2]; Crl:CD-1, 1 mg/kg IV
  AUC(0-t): 246 ng·h/mL
  Cmax: 410 ng/mL
  Tmax: 4.98 min
[2]; Crl:CD-1, 1 mg/kg PO
  AUC(0-t): 4.26 ng·h/mL
  Cmax: 5.58 ng/mL
  Tmax: 120 min
[2]; Crl:CD-1, 3 mg/kg PO
  AUC(0-t): 56.4 ng·h/mL
  Cmax: 12.8 ng/mL
  Tmax: 30 min
  half-life: 194 min
[2]; Crl:CD-1, 10 mg/kg PO
  AUC(0-t): 375 ng·h/mL
  Cmax: 48.1 ng/mL
  Tmax: 120 min
  half-life: 463 min
[3]
  functional activity at A1 receptor: full antagonism
[3]; read-out: IC50, A1 functional antagonism (c-AMP)
  IC50: 98.8 nM
